According to patent US20190315823A1, “SMALL CATIONIC ANTI-BIOFILM AND IDR PEPTIDES” (priority 2013, published 2019):
Where two headings read alike, the source gives them in different places. Marks after values point to notes of the source that are not given here. Ends that are not written are not given here. Peptide text beside a SMILES is read from it.

Tests used:
[1] = test system: P. aeruginosa biofilm; format: cell-based; settings: biofilm
Method: Methods of assessment of anti-biofilm activity—Biofilm formation was initially analyzed using a static abiotic solid surface assay as described elsewhere (de la Fuente-Nunez et al., 2012). […] Planktonic cells were removed, biofilm cells adhering to the side of the tubes were stained with crystal violet, and absorbance at 595 nm was measured using a microtiter plate reader (Bio-Tek Instruments Inc., United States). Some peptides were screened against two Gram negative organisms, P. aeruginosa and K. pneumoniae using a Bioflux apparatus (AutoMate Scientific, Berkeley, Calif.; http://www.autom8.com/bioflux_biofilm.html), which allows for the high-throughput, real-time analysis of biofilms.

[2] = test system: human peripheral blood mononuclear cells (MCP-1); assay: SPOT-synthesized derivative screen: production of chemokine MCP-1; format: cell-based; settings: No LPS
In short: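 PBMC from heparinized healthy-donor venous blood, Ficoll-separated, cultured at 0.75 to 1×10^6 cells/ml, 37 °C, 5% CO2, under the treatment regimens. MCP-1 in cell-free supernatants measured by capture ELISA.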

[3] = test system: LPS-stimulated human peripheral blood mononuclear cells (IL1-β); format: cell-based; settings: cells stimulated with 10 ng/ml LPS; for IL1β Production: LPS alone 1313 (HH2 derivatives), 1927 (1018 derivatives), 2455 (1002 and hybrid peptides) pg/ml
[4] = test system: S. aureus biofilms; assay: checkerboard titration biofilm synergy (MBIC, FIC); format: cell-based
Method: Peptides and various conventional antibiotics were analyzed by checkerboard titration into microtiter trays using CLSI methods (Wiegand, I., K. Hilpert, and R. E. W. Hancock. 2008. Nature Protocols 3:163-175), bacteria added and, after overnight incubation at 37° C., the residual biofilm assessed by the crystal violet method mentioned in the body of the grant, with an A595 of 0.2 considered as 100% biofilm inhibition. The effects of the peptide in reducing the minimal biofilm inhibitory concentration (MBIC) of the antibiotic and vice versa were assessed using the Fractional Inhibitory Concentration (FIC) method whereby ΣFTC=FICA+FICB=(CA/MICA)+(CB/MICB), where MBICA and MBICB are the MBICs of peptide A and antibiotic B alone, respectively, and CA and CB (expressed in μg/ml) are the MICs of the drugs in combination. This conventional clinical microbiology assay is interpreted as follows

[5] = test system: methicillin resistant Staphylococcus aureus (MRSA) biofilm; settings: approximate peptide concentration […] (around 3 μg/ml); compared to untreated samples
In short: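 Static biofilm assay: 1/100 dilutions of overnight cultures grown in BM2 medium (pH 7, glucose, Casamino Acids) or Luria Broth with peptide added at time zero. After 22–46 h, adherent biofilm was stained with crystal violet and read at 595 nm. Some peptides were also tested on K. pneumoniae under flow in a Bioflux system.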

[6] = Table 12, human PBMC, peptide at ~18-24 μM
[7] = Table 12, human PBMC, peptide at ~18-24 μM, background subtracted 139 (HH2 derivatives), 170 (1018 derivatives), 242 (1002 and hybrid peptides) pg/ml

Row | Compound | MBIC50 P. aeruginosa [1] | Fold increase in MCP1 cf. untreated cells [2, 6] | MCP1 [2, 7] | Fold increase in MCP1 cf. untreated cells ([2]; Table 12A) | MCP1 ([2]; Table 12A, background subtracted (21.3 pg/ml)) | Fold change in IL1β relative to no peptide LPS stimulated cells ([3]; Table 12) | IL1β Production ([3]; Table 12) | Fold change in IL1β relative to no peptide LPS stimulated cells ([3]; Table 12A, 1002-2013 compared to LPS control of 889 pg/ml) | IL1β Production (pg/ml) ([3]; Table 12A, LPS alone 984 pg/ml, starred values (1002-2013) determined separately, LPS alone 889 pg/ml) | FIC ([4]; antibiotic in combination with peptide DJK6) | Fold decrease in antibiotic concentration ([4]; in the presence of peptide DJK6) | % Biofilm inhibition [5]
1 | CC[C@H](C)[C@H](NC(=O)[C@H](CCCNC(=N)N)NC(=O)[C@H](CC(C)C)NC(=O)[C@H](CCC(N)=O)NC(=O)[C@@H](N)C(C)C)C(=O)N[C@@H](CCCNC(=N)N)C(=O)N[C@H](C(=O)N[C@@H](C)C(=O)N[C@H](C(=O)N[C@H](C(=O)N[C@@H](CCCNC(=N)N)C(=O)N[C@@H](C)C(N)=O)[C@@H](C)CC)C(C)C)C(C)C [HH2] (H-VQLRIRVAVIRA-NH2; N-terminus assumed) | >80 µg/mL | 3.6 | 450 pg/mL | 43 | 896 pg/mL | 1.00 | 1307 pg/mL | 0.53 | 469* pg/ml | – | – | –
2 | CN[C@H](CC(C)C)C(=O)N[C@H]1C(=O)N[C@@H](CC(N)=O)C(=O)N[C@H]2C(=O)N[C@H]3C(=O)N[C@H](C(=O)N[C@H](C(=O)O)c4cc(O)cc(O)c4-c4cc3ccc4O)[C@H](O)c3ccc(c(Cl)c3)Oc3cc2cc(c3O[C@@H]2O[C@H](CO)[C@@H](O)[C@H](O)[C@H]2O[C@H]2C[C@](C)(N)[C@H](O)[C@H](C)O2)Oc2ccc(cc2Cl)[C@H]1O [Vancomycin] | – | – | – | – | – | – | – | – | – | 0.4 | 16 | –
3 | 1002-A11: single substituted 1002 peptide (VQRWLIVWRIAK-NH2) [Peptide 1002-A11] | – | 3.0 | 485.3 pg/mL | – | – | 0.05 | 127 pg/mL | – | – | – | – | 52%
4 | 1018-I1: single substituted 1018 peptide (IRLIVAVRIWRR-NH2) [Peptide 1018-I1] | – | 18 | 2873 pg/mL | – | – | 0.11 | 138 pg/mL | – | – | – | – | 56%
5 | HH2-W1: single substituted HH2 peptide (WQLRIRVAVIRA-NH2) | – | 29 | 4725 pg/mL | – | – | 0.66 | 866 pg/mL | – | – | – | – | 67%
6 | HH2-V3: single substituted HH2 peptide (VQVRIRVAVIRA-NH2) | – | 211 | 35750 pg/mL | – | – | 1.27 | 1665 pg/mL | – | – | – | – | 57%
7 | HH2-G7: single substituted HH2 peptide (VQLRIRGAVIRA-NH2) | – | 1.5 | 78 pg/mL | – | – | 1.02 | 1344 pg/mL | – | – | – | – | 33%
8 | HH2-I8: single substituted HH2 peptide (VQLRIRVIVIRA-NH2) | – | 17 | 2789 pg/mL | – | – | 0.53 | 701 pg/mL | – | – | – | – | 74%
9 | HH2-L6: single substituted HH2 peptide (VQLRILVAVIRA-NH2) | – | 1.8 | 138 pg/mL | – | – | 0.69 | 901 pg/mL | – | – | – | – | 18%
10 | 1002-V9: single substituted 1002 peptide (VQRWLIVWVIRK-NH2) [Peptide 1002-V9] | – | 1.5 | 131.8 pg/mL | – | – | 0.05 | 134 pg/mL | – | – | – | – | 47%
11 | 1002-I9: single substituted 1002 peptide (VQRWLIVWIIRK-NH2) [Peptide 1002-I9] | – | 3.5 | 605.9 pg/mL | – | – | 0.06 | 158 pg/mL | – | – | – | – | 53%
12 | 1002-K2: single substituted 1002 peptide (VKRWLIVWRIRK-NH2) [Peptide 1002-K2] | – | 2.6 | 392.4 pg/mL | – | – | 0.05 | 127 pg/mL | – | – | – | – | 69%
